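Assay format: 96-well plates, 48-hour exposure. At the GI50, growth is halved.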 Active and inactive are the calls of the source. Rule as the data show it: active = GI50 up to about 1.1 µM and inactive = higher.
Legend:
Test in all cases: growth of human tumour cells (NCI), 48 h
NCI-H460 = test system: NCI-H460
NCI/ADR-RES = test system: NCI/ADR-RES
ACHN = test system: ACHN
786-0 = test system: 786-0
SK-MEL-2 = test system: SK-MEL-2
RXF 393 = test system: RXF 393
HOP-92 = test system: HOP-92
Malme-3M = test system: Malme-3M
K562 = test system: K562
NCI-H522 = test system: NCI-H522
SNB-75 = test system: SNB-75
SF-539 = test system: SF-539
SW-620 = test system: SW-620
MDA-MB-435 = test system: MDA-MB-435
RPMI-8226 = test system: RPMI-8226
SF-268 = test system: SF-268
KM12 = test system: KM12
MDA-MB-231 = test system: MDA-MB-231
HL-60 = test system: HL-60
T47D = test system: T47D
HT-29 = test system: HT-29
UO-31 = test system: UO-31
IGROV-1 = test system: IGROV-1
U-251 = test system: U-251
DU-145 = test system: DU-145
OVCAR-4 = test system: OVCAR-4
MOLT-4 = test system: MOLT-4
A549 = test system: A549
SK-MEL-5 = test system: SK-MEL-5
LOX IMVI = test system: LOX IMVI
MDA-N = test system: MDA-N
SK-OV-3 = test system: SK-OV-3
SNB-19 = test system: SNB-19
Hs-578T = test system: Hs-578T
UACC-257 = test system: UACC-257
HCT-15 = test system: HCT-15
OVCAR-3 = test system: OVCAR-3
PC-3 = test system: PC-3
HCC 2998 = test system: HCC 2998
HOP-62 = test system: HOP-62
A498 = test system: A498
TK-10 = test system: TK-10
SF-295 = test system: SF-295
SN12C = test system: SN12C
NCI-H226 = test system: NCI-H226
CAKI-1 = test system: CAKI-1
HCT-116 = test system: HCT-116
BT-549 = test system: BT-549
MCF7 = test system: MCF7
M14 = test system: M14
COLO 205 = test system: COLO 205
NCI-H23 = test system: NCI-H23
OVCAR-8 = test system: OVCAR-8
CCRF-CEM = test system: CCRF-CEM
OVCAR-5 = test system: OVCAR-5
UACC-62 = test system: UACC-62
SR = test system: SR

With `Cc1cc(S(=O)(=O)Nc2nnc3cnc4ccccc4n23)c(S)cc1Cl` the GI50 (NCI-H460) was 51.5 µM (inactive), the GI50 (NCI/ADR-RES) was > 100 µM (inactive) and the GI50 (ACHN) was 6.73 µM (inactive). For the same compound, the GI50 (786-0) was > 100 µM (inactive), the GI50 (SK-MEL-2) was 97.1 µM (inactive) and the GI50 (RXF 393) was > 100 µM (inactive). For the same compound, the GI50 (HOP-92) was 11.1 µM (inactive), the GI50 (Malme-3M) was > 100 µM (inactive) and the GI50 (K562) was > 100 µM (inactive). The GI50 (NCI-H522) was > 100 µM (inactive), the GI50 (SNB-75) was > 54.5 µM (inactive) and the GI50 (SF-539) was > 100 µM (inactive). For the same compound, the GI50 (SW-620) was > 100 µM (inactive), the GI50 (MDA-MB-435) was > 100 µM (inactive) and the GI50 (RPMI-8226) was > 100 µM (inactive). The GI50 (SF-268) was 98.6 µM (inactive), the GI50 (KM12) was > 83.6 µM (inactive) and the GI50 (MDA-MB-231) was > 100 µM (inactive). The GI50 (HL-60) was > 100 µM (inactive), the GI50 (T47D) was > 100 µM (inactive) and the GI50 (HT-29) was > 100 µM (inactive). For the same compound, the GI50 (UO-31) was 35.2 µM (inactive), the GI50 (IGROV-1) was > 100 µM (inactive) and the GI50 (U-251) was > 74.1 µM (inactive). For the same compound, the GI50 (DU-145) was > 100 µM (inactive), the GI50 (OVCAR-4) was > 100 µM (inactive) and the GI50 (MOLT-4) was > 100 µM (inactive). For the same compound, the GI50 (A549) was > 100 µM (inactive), the GI50 (SK-MEL-5) was > 41.7 µM (inactive) and the GI50 (LOX IMVI) was > 100 µM (inactive). The GI50 (MDA-N) was > 100 µM (inactive), the GI50 (SK-OV-3) was > 100 µM (inactive) and the GI50 (SNB-19) was 51.9 µM (inactive). The GI50 (Hs-578T) was 57.8 µM (inactive), the GI50 (UACC-257) was > 100 µM (inactive) and the GI50 (HCT-15) was greater than 100 µM. For the same compound, the GI50 (OVCAR-3) was 98.9 µM (inactive), the GI50 (PC-3) was > 100 µM (inactive) and the GI50 (HCC 2998) was > 100 µM (inactive). For the same compound, the GI50 (HOP-62) was 79.4 µM (inactive), the GI50 (A498) was > 100 µM (inactive) and the GI50 (TK-10) was > 100 µM (inactive). The GI50 (SF-295) was > 100 µM (inactive), the GI50 (SN12C) was > 100 µM (inactive) and the GI50 (NCI-H226) was > 94.6 µM (inactive). For the same compound, the GI50 (CAKI-1) was > 100 µM (inactive), the GI50 (HCT-116) was > 100 µM (inactive) and the GI50 (BT-549) was > 88.5 µM (inactive). For the same compound, the GI50 (MCF7) was > 100 µM (inactive), the GI50 (M14) was > 100 µM (inactive) and the GI50 (COLO 205) was > 100 µM (inactive). For the same compound, the GI50 (NCI-H23) was > 100 µM (inactive), the GI50 (OVCAR-8) was > 52.1 µM (inactive) and the GI50 (CCRF-CEM) was > 100 µM (inactive). The GI50 (OVCAR-5) was > 100 µM (inactive), the GI50 (UACC-62) was 79.1 µM (inactive) and the GI50 (SR) was > 100 µM (inactive).

From ChEMBL document CHEMBL1201862, “PubChem BioAssay data set” (2004)
